The values that follow come from patent US9167821B2 (priority 2009, dated 2015).

Series [1] has as its system Phytophthora infestans. Put plainly: whole plant or invertebrate. Type of series: in vivo. Particulars: for pest or weed control at 10 ppm: Phytophthora infestans, in Solanum lycopersicum, 72 h, read-out: efficacy; for efficacy: tomato plants, protective spray, 10 ppm active ingredient, evaluation 3 days after inoculation, 0% = control, 100% = no infection.
The subject of series [2] is Plasmopara viticola. Put plainly: Plasmopara test (grapevine)/protective. Type of series: in vivo. The note with it: grapevine plants, protective spray, 10 ppm active ingredient, evaluation 6 days after inoculation, 0% = control, 100% = no infection; for pest or weed control at 10 ppm: Plasmopara viticola, 144 h, read-out: efficacy. Here is the method:
Plasmopara Test (Grapevine)/Protective
To prepare an appropriate active ingredient preparation, 1 part by weight of active ingredient is mixed with the stated amounts of solvent and emulsifier, and the concentrate is diluted with water to the desired concentration.
To test for protective efficacy, young plants are sprayed with the active ingredient preparation at the stated application rate. After the spray coating has dried on, the plants are inoculated with an aqueous spore suspension of Plasmopara viticola and then remain in an incubation cabinet at about 20° C. and 100% relative atmospheric humidity for 1 day. The plants are then placed in a greenhouse at approx. 21° C. and approx. 90% air humidity for 4 days. The plants are then moistened and placed in an incubation cabinet for 1 day.
Evaluation follows 6 days after the inoculation.

Series [3] can be described thus: physchem.
Source text: (§1) The determination is effected in the acidic range at pH 2.3 using 0.1% aqueous phosphoric acid and acetonitrile as eluents; linear gradient from 10% acetonitrile to 95% acetonitrile. • ^[b] The LC-MS determination in the acidic range is effected at pH 2.7 using 0.1% aqueous formic acid and acetonitrile (contains 0.1% formic acid) as eluents; linear gradient from 10% acetonitrile to 95% acetonitrile. • ^[c] The LC-MS determination in the neutral range is effected at pH 7.8 using 0.001 molar aqueous ammonium hydrogencarbonate solution and acetonitrile as eluents; linear gradient from 10% acetonitrile to 95% acetonitrile.
(§2) The calibration is effected with unbranched alkan-2-ones (having 3 to 16 carbon atoms) with known log P values (determination of the log P values using the retention times by linear interpolation between two successive alkanones).
For series [4] the following is noted: for logp [a]: pH 2.3; for logp [c]: pH 7.8; for logp [b] / log P (HCOOH): pH 2.7.
Source text: as §1, §2

A word on the chromatographic logP: it is a lipophilicity value derived from retention on a column. For the molecule `Nc1ccccc1C1CC(c2csc(C3CCN(C(=O)Cn4nc(C(F)F)cc4C(F)F)CC3)n2)=NO1` (centres unmarked) [I-41, 1-(4-{4-[5-(2-Aminophenyl)-4,5-dihydro-1,2-oxazol-3-yl]-1,3-thiazol-2-yl}piperidin-1-yl)-2-[3,5-bis(difluoromethyl)-1H-pyrazol-1-yl]ethanone], the pest or weed control at 10 ppm in series [1] worked out at 94%; in series [2], 100%. Further, the chromatographic logP in series [3] (pH 2.3) amounted to 2.7; in series [3] (pH 7.8, logp [c]) it was 2.71.
`CCC#CCOc1cccc(C2CC(c3csc(C4CCN(C(=O)Cn5nc(C(F)F)cc5C(F)F)CC4)n3)=NO2)c1` (racemic) [I-34]: in series [4], the “logp [a]” value was 3.83^[a] and the “logp [c]” value was 3.74^[c];.
With `C#CCOc1ccc(C2CC(c3csc(C4CCN(C(=O)Cn5nc(C(F)F)cc5C(F)F)CC4)n3)=NO2)cc1` (racemic) [I-22], the results for the efficacy in series [1] and in series [2] were 98% and 97%, respectively. In addition, the “logp [a]” value in series [4] is 3.14^[a];. Also, the “logp [c]” value in series [4] is 3.08^[c].
The like results for `C#CCOc1ccccc1C1CC(c2csc(C3CCN(C(=O)Cn4nc(C(F)F)cc4C(F)F)CC3)n2)=NO1` (racemic) [I-39] were, in that order, 99%, 99%, 3.28^[a] and 3.23^[c];.
For `COCCOc1ccccc1C1CC(c2csc(C3CCN(C(=O)Cn4nc(C(F)F)cc4C(F)F)CC3)n2)=NO1` (centres unmarked) [I-19, 2-[3,5-Bis(difluoromethyl)-1H-pyrazol-1-yl]-1-[4-(4-{5-[2-(2-methoxyethoxy)phenyl]-4,5-dihydro-1,2-oxazol-3-yl}-1,3-thiazol-2-yl)piperidin-1-yl]ethanone], the pest or weed control at 10 ppm in series [1] and in series [2] was 96% in each case. Further, the chromatographic logP in series [3] (pH 2.7, logp [b]) worked out at 3.26; in series [3] (pH 7.8, logp [c]) it was 3.18.
Molecule `C#CCOc1cccc(C2CC(c3csc(C4CCN(C(=O)Cn5nc(C(F)F)cc5C(F)F)CC4)n3)=NO2)c1` (racemic) [I-21] had an efficacy in series [1] of 98%. In series [2], this molecule gave an efficacy of 100%. Also, in series [4], the “logp [a]” value is 3.24^[a] and the “logp [c]” value is 3.16^[c];.
As for `O=C(Cn1nc(C(F)F)cc1C(F)F)N1CCC(c2nc(C3=NOC(c4ccccc4COCC(F)(F)F)C3)cs2)CC1` (racemic) [I-52], in series [4], the “logp [b]” value was 3.4^[b] and the “logp [c]” value is 3.6^[c];.
For the molecule `CCC#CCOc1ccc(C2CC(c3csc(C4CCN(C(=O)Cn5nc(C(F)F)cc5C(F)F)CC4)n3)=NO2)cc1` (racemic) [I-47], in series [4], the “logp [a]” value is 3.76^[a] and the “logp [c]” value was 3.74^[c];.
Take `O=C(Cn1nc(C(F)F)cc1C(F)F)N1CCC(c2nc(C3=NOC(c4cccc(O)c4)C3)cs2)CC1` (racemic) [I-42]: the figures for the efficacy in series [1] and in series [2] were 94% and 97%, respectively. The “logp [a]” value in series [4] is 2.43^[a]. For the same molecule, in series [4], the “logp [c]” value was 2.45^[c];.
Consider `O=Cc1ccccc1C1CC(c2csc(C3CCN(C(=O)Cn4nc(C(F)F)cc4C(F)F)CC3)n2)=NO1` (centres unmarked) [I-26, 2-{3-[2-(1-{[3,5-Bis(difluoromethyl)-1H-pyrazol-1-yl]acetyl}piperidin-4-yl)-1,3-thiazol-4-yl]-4,5-dihydro-1,2-oxazol-5-yl}benzaldehyde], for which the pest or weed control at 10 ppm in series [1] is 97%; in series [2], 100%. In series [3] (pH 2.7, logp [b]), this molecule registered a chromatographic logP of 2.98.
Regarding `N=C(N)SCc1ccccc1C1CC(c2csc(C3CCN(C(=O)Cn4nc(C(F)F)cc4C(F)F)CC3)n2)=NO1` (centres unmarked) [2-{3-[2-(1-{[3,5-Bis(difluoromethyl)-1H-pyrazol-1-yl]acetyl}piperidin-4-yl)-1,3-thiazol-4-yl]-4,5-dihydro-1,2-oxazol-5-yl}benzyl imidothiocarbamate], the “log P (HCOOH)” value in series [4] was 1.68.
Consider `CC#CCOc1ccccc1C1CC(c2csc(C3CCN(C(=O)Cn4nc(C(F)F)cc4C(F)F)CC3)n2)=NO1` (racemic) [I-35], for which the efficacy in series [1] is given as 88%. Moreover, in series [4], the “logp [a]” value was 3.65^[a] and the “logp [c]” value was 3.55^[c];.
`CC(C)(C)OC(=O)N1CCC(F)(c2nc(C=NO)cs2)CC1` (mixture of isomers) [tert-Butyl 4-fluoro-4-{4-[(E/Z)-(hydroxyimino)methyl]-1,3-thiazol-2-yl}piperidine-1-carboxylate]: in series [4], the “log P (HCOOH)” value was determined as 2.53.
For `CC#CCOc1cccc(F)c1C1CC(c2csc(C3CCN(C(=O)Cn4nc(C(F)F)cc4C(F)F)CC3)n2)=NO1` (racemic) [I-29], in series [4], the “logp [a]” value is 3.46^[a]; and the “logp [c]” value was 3.42^[c].
As for `C=CCOc1ccccc1C1CC(c2csc(C3CCN(C(=O)Cn4nc(C(F)F)cc4C(F)F)CC3)n2)=NO1` (centres unmarked) [I-14, 1-[4-(4-{5-[2-(Allyloxy)phenyl]-4,5-dihydro-1,2-oxazol-3-yl}-1,3-thiazol-2-yl)piperidin-1-yl]-2-[3,5-bis(difluoromethyl)-1H-pyrazol-1-yl]ethanone], the values for the pest or weed control at 10 ppm in series [1] and in series [2] were 98% and 100%, respectively. The chromatographic logP in series [3] (pH 2.7, logp [b]) turned out to be 3.63; in series [3] (pH 7.8, logp [c]) it was 3.65.
On to `C#CCOc1cccc(F)c1C1CC(c2csc(C3CCN(C(=O)Cn4nc(C(F)F)cc4C(F)F)CC3)n2)=NO1` (racemic) [I-30], for which, in series [4], the “logp [a]” value is 3.18^[a]; and the “logp [c]” value was 3.15^[c].
For `O=C(Cn1nc(C(F)F)cc1C(F)F)N1CCC(F)(c2nc(C3=NOC(c4ccccc4)C3)cs2)CC1` (centres unmarked) [I-5, 2-[3,5-bis(difluoromethyl)-1H-pyrazol-1-yl]-1-{4-fluoro-4-[4-(5-phenyl-4,5-dihydro-1,2-oxazol-3-yl)-1,3-thiazol-2-yl]piperidin-1-yl}ethanone], the pest or weed control at 10 ppm came to 93% in series [1] and 97% in series [2]. Further, the chromatographic logP in series [3] (pH 2.7, log P (HCOOH)) worked out at 3.41; in series [3] (pH 2.7, logp [b]) it was 3.41.
`CC#CCOc1ccc(C2CC(c3csc(C4CCN(C(=O)Cn5nc(C(F)F)cc5C(F)F)CC4)n3)=NO2)cc1` (racemic) [I-48]: in series [4], the “logp [a]” value is 3.43^[a] and the “logp [c]” value is 3.42^[c];.
The like results for `O=C(Oc1ccccc1C1CC(c2csc(C3CCN(C(=O)Cn4nc(C(F)F)cc4C(F)F)CC3)n2)=NO1)C1CC1` (racemic) [I-33] were, in that order, 3.34^[a] and 3.28^[c];.
Consider `CC(C)=CCOc1ccccc1C1CC(c2csc(C3CCN(C(=O)Cn4nc(C(F)F)cc4C(F)F)CC3)n2)=NO1` (centres unmarked) [I-20, 2-[3,5-Bis(difluoromethyl)-1H-pyrazol-1-yl]-1-{4-[4-(5-{2-[(3-methylbut-2-en-1-yl)oxy]phenyl}-4,5-dihydro-1,2-oxazol-3-yl)-1,3-thiazol-2-yl]piperidin-1-yl}ethanone], for which the pest or weed control at 10 ppm in series [1] amounted to 95%; in series [2] it was 98%. In addition, the chromatographic logP in series [3] (pH 2.7, logp [b]) is 4.19; in series [3] (pH 7.8, logp [c]) it was 4.11.
In turn, `O=C(Cn1nc(C(F)F)cc1C(F)F)N1CCC(F)(c2nc(C3=NOC(c4ccccc4F)C3)cs2)CC1` (racemic) [I-4] had an efficacy in series [2] of 100%. Moreover, in series [4], the “logp [b]” value is 3.49^[b].
`O=C(Cn1nc(C(F)F)cc1C(F)F)N1CCC(c2nc(C3=NOC(c4ccccc4[N+](=O)[O-])C3)cs2)CC1` (centres unmarked) [I-10, 2-[3,5-Bis(difluoromethyl)-1H-pyrazol-1-yl]-1-(4-{4-[5-(2-nitrophenyl)-4,5-dihydro-1,2-oxazol-3-yl]-1,3-thiazol-2-yl}piperidin-1-yl)ethanone]: the values for the pest or weed control at 10 ppm in series [1] and in series [2] were 97% and 100%, respectively. The molecule also yielded a chromatographic logP in series [3] (pH 2.7, logp [b]) of 3.19.
For the molecule “tert-Butyl 4-[4-(5-{2-[(cyclopropylmethoxy)carbonyl]phenyl}-4,5-dihydro-1,2-oxazol-3-yl)-1,3-thiazol-2-yl]piperidine-1-carboxylate [X-a-10]”, the “log P (HCOOH)” value in series [4] was found to be 4.99.
Take `CCS(=O)(=O)Cc1ccccc1C1CC(c2csc(C3CCN(C(=O)Cn4nc(C(F)F)cc4C(F)F)CC3)n2)=NO1` (racemic) [I-53]: in series [4], the “logp [b]” value was 2.76^[b].
For `O=C(Cn1nc(C(F)F)cc1C(F)F)N1CCC(c2nc(C=NO)cs2)CC1` [2-(1-{[3,5-Bis(difluoromethyl)-1H-pyrazol-1-yl]acetyl}piperidin-4-yl)-1,3-thiazole-4-carbaldehyde oxime], the “log P (HCOOH)” value in series [4] was determined as 1.98. Besides, in series [3] (pH 2.7, log P (HCOOH)), the chromatographic logP was found to be 1.93.
For `CCCCOCc1ccccc1C1CC(c2csc(C3CCN(C(=O)Cn4nc(C(F)F)cc4C(F)F)CC3)n2)=NO1` (racemic) [I-16], the “logp [b]” value in series [4] was 4.24^[b].
With `O=C(Cn1nc(C(F)F)cc1C(F)F)N1CCC(c2nc(C3=NOC(c4ccccc4O)C3)cs2)CC1` (centres unmarked) [I-9, 2-[3,5-Bis(difluoromethyl)-1H-pyrazol-1-yl]-1-(4-{4-[5-(2-hydroxyphenyl)-4,5-dihydro-1,2-oxazol-3-yl]-1,3-thiazol-2-yl}piperidin-1-yl)ethanone], the pest or weed control at 10 ppm in series [1] came to 96%; in series [2], 99%. Besides, the chromatographic logP in series [3] (pH 2.3) was determined as 2.58; in series [3] (pH 7.8, logp [c]), 2.6.
As for `O=C(CC(F)(F)F)Oc1ccccc1C1CC(c2csc(C3CCN(C(=O)Cn4nc(C(F)F)cc4C(F)F)CC3)n2)=NO1` (racemic) [I-36], in series [4], the “logp [a]” value is 9.43^[a]; and the “logp [c]” value is 3.52^[c].
